{"source": "patent US5691155A", "about": "“Nucleotide sequences encoding the murine β3-adrenergic receptor and their applications” (priority 1991, dated 1997)", "key": {"murine RA-β3 [1]": {"target": "T1, murine RA-β3 (Mus musculus, UniProt P25962)", "T1 construct": "expressed in transfected cells", "T1 sequence (P25962 1-388)": "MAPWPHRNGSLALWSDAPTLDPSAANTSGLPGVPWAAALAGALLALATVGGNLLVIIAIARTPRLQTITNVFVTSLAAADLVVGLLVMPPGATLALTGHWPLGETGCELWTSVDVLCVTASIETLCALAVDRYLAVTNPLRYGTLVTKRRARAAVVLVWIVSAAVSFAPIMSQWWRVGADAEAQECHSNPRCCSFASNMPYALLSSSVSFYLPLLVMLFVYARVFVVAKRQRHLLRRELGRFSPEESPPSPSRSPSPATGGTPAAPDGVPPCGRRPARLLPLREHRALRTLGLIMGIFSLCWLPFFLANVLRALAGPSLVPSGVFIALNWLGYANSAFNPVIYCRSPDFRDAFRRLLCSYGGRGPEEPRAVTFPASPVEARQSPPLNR", "test": "cAMP accumulation in CHO-Muβ3 cells (agonists)", "format": "cell-based", "conditions": "for maximum stimulation of cAMP accumulation: % of that for (-)-isoproterenol; for A.I. (% IPR), intrinsic activity: % of maximum effect of (-)-isoproterenol; for activation of receptor by β1 and β2 antagonists (in words): murine RA-β3; for agonist type (in words): murine RA-β3, CHO-Muβ3", "experimental": "(§1) a. Test for cAMP Accumulation\n(§2) preconfluent cells such as those described in Example 5 (5×10^5) are incubated at 37° C. for 20 minutes in 0.5 ml of HANKS buffer containing 20 mM HEPES (pH 7.4), 1 mM ascorbic acid, 1 mM isobutylmethylxanthine and various concentrations of agonist.\n(§3) After boiling for 5 min and centrifugation (4000 r.p.m., 10 min, 4° C.), the quantity of cAMP produced is determined using the Amersham cAMP kit.\nTo determine the pharmacological profile of murine RA-β3, the coding region of its gene was inserted into an expression vector like that described in Example 5.\n(§4) The Kact values correspond to the agonist concentration giving 50% of the maximum stimulation."}, "human RA-β3 [2]": {"target": "T2, human RA-β3 (Homo sapiens, UniProt P13945)", "T2 construct": "expressed in transfected cells; host or cells: CHO (Chinese Hamster Ovary), CHO-Huβ3", "T2 sequence (P13945 1-402)": "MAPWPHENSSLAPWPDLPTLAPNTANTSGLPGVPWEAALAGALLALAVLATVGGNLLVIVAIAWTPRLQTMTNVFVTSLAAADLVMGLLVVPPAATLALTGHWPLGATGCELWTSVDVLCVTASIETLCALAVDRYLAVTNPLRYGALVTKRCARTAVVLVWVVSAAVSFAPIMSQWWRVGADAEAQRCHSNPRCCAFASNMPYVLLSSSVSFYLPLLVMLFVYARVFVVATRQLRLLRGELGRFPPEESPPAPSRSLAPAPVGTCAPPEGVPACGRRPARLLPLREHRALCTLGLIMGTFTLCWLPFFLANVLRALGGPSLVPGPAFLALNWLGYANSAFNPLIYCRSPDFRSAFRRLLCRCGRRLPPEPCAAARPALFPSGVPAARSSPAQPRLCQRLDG", "test": "Inhibition of isoproterenol-induced cAMP accumulation in CHO-Huβ3 cells (antagonists)", "format": "cell-based"}, "murine RA-β3 [3]": {"target": "T1, murine RA-β3", "test": "Inhibition of (-)-isoproterenol-induced cAMP accumulation in CHO-Muβ3 cells (antagonists)", "format": "cell-based", "conditions": "for concentration required to inhibit isoproterenol-induced cAMP accumulation (in words): CHO-Muβ3, 5 nM (-)-isoproterenol; for inhibition of isoproterenol-induced accumulation of cAMP (in words): murine RA-β3"}, "human RA-β3 [4]": {"target": "T2, human RA-β3", "test": "cAMP accumulation in CHO-Huβ3 cells (agonists)", "format": "cell-based", "conditions": "for activation of receptor by β1 and β2 antagonists (in words): human RA-β3; for EC50: CHO-Huβ3, agonist concentration giving 50% of the maximum stimulation, read-out: Kact", "experimental": "In order to be able to directly compare the properties of the murine and human β3-AR receptors, it was decided to express the mouse β3 gene in the CHO (Chinese Hamster Ovary) cell line which has already been used to analyse the human β3-AR receptor (see French Patent Application No. 89 00918).\nas §1, §2, §3, §4"}, "murine RA-β3 [5]": {"target": "T1, murine RA-β3", "test": "Binding of [^125 I]ICYP to saturation, intact CHO-Muβ3 cells", "conditions": "saturation/Scatchard, mean±SEM, n=3, read-out: dissociation constant", "experimental": "b. Test for the Binding of ICYP\npreconfluent cells such as those described in Example 5 (10^5) are incubated for 1 hour at 37° C. in a HANKS buffer containing 20 mM HEPES (pH 7.4), 1 mM ascorbic acid, 2 μM desipramine, 0.05% bovine serum albumin and 70-7000 pM (-)-[^125 I]ICYP (2000 Ci/mmol, Amersham).\nThe incubations are stopped by dilution in cold PBS buffer and the bound ligand is separated from free [^125 I]ICYP by filtration (Whatman GF/C filters impregnated with 0.3% polyethyleneimine).\nThe filters are washed 3 times with cold PBS buffer and the radioactivity is measured."}, "obese rat cells": {"system": "obese rat cells", "conditions": "cited from earlier work"}, "RA-β3": {"system": "RA-β3", "conditions": "cited from earlier work"}, "[6]": {"conditions": "CHO-Muβ3, agonist concentration giving 50% of the maximum stimulation, read-out: Kact"}}, "note": "Entries after “also recorded” stand apart in the source; their conditions may differ. Where two headings read alike, the source gives them in different places."}
{"smiles": "NC[C@H](O)c1ccc(O)c(O)c1", "note": "[(-)-noradrenaline]", "values": [{"measurement": "EC50", "setting": "murine RA-β3 [1]", "value": "0.0129 ± 0.0042", "unit": "µM"}, {"measurement": "stimulation of cAMP accumulation (in words)", "setting": "murine RA-β3 [1]; CHO-Muβ3", "value": "accumulation of cAMP is stimulated"}, {"measurement": "Emax", "setting": "murine RA-β3 [1]; read-out: A.I. (% IPR), intrinsic activity", "value": "106 ± 5.6", "unit": "%"}]}
{"smiles": "Cn1cc(C(F)(F)F)nc1-c1ccc(OCC(O)CNCCOc2ccc(O)c(C(N)=O)c2)cc1", "note": "(stereo not shown) [CGP 20712A]", "values": [{"measurement": "inhibition of isoproterenol-induced accumulation of cAMP (in words)", "setting": "human RA-β3 [2]", "value": "weak inhibitors"}, {"measurement": "Ki", "setting": "murine RA-β3 [3]", "value": "6.42 ± 0.584", "unit": "µM"}, {"measurement": "concentration required to inhibit isoproterenol-induced cAMP accumulation (in words)", "setting": "murine RA-β3 [3]", "value": "micromolar concentrations are required; also recorded: micromolar amounts"}, {"measurement": "inhibition of isoproterenol-induced accumulation of cAMP (in words)", "setting": "murine RA-β3 [3]", "value": "weak inhibitors"}]}
{"smiles": "CC(C)NCC(O)COc1cccc2[nH]ccc12", "note": "(stereo not shown) [pindolol]", "values": [{"measurement": "maximum stimulation of cAMP accumulation", "setting": "murine RA-β3 [1]; CHO-Muβ3", "value": 36, "unit": "%"}, {"measurement": "A.I. (% IPR), intrinsic activity", "setting": "murine RA-β3 [1]; CHO-Muβ3", "value": "35.1 ± 3.1", "unit": "%"}, {"measurement": "EC50", "setting": "murine RA-β3 [1]; [6]", "value": "0.999 ± 0.197", "unit": "µM"}, {"measurement": "activation of receptor by β1 and β2 antagonists (in words)", "setting": "murine RA-β3 [1]", "value": "can be activated"}, {"measurement": "agonist type (in words)", "setting": "murine RA-β3 [1]", "value": "behave like partial agonists"}, {"measurement": "activation of receptor by β1 and β2 antagonists (in words)", "setting": "human RA-β3 [4]", "value": "can be activated"}]}
{"smiles": "Cc1ccc(OCC(O)C(C)NC(C)C)c2c1CCC2", "note": "(stereo not shown) [ICI 118551]", "values": [{"measurement": "inhibition of isoproterenol-induced accumulation of cAMP (in words)", "setting": "human RA-β3 [2]", "value": "weak inhibitors"}, {"measurement": "Ki", "setting": "murine RA-β3 [3]", "value": "4.97 ± 0.137", "unit": "µM"}, {"measurement": "concentration required to inhibit isoproterenol-induced cAMP accumulation (in words)", "setting": "murine RA-β3 [3]", "value": "micromolar concentrations are required; also recorded: micromolar amounts"}, {"measurement": "inhibition of isoproterenol-induced accumulation of cAMP (in words)", "setting": "murine RA-β3 [3]", "value": "weak inhibitors"}]}
{"smiles": "CC(C)NCC(O)COc1cccc2ccccc12", "note": "(stereo not shown) [Propranolol]", "values": [{"measurement": "inhibition of isoproterenol-induced accumulation of cAMP (in words)", "setting": "human RA-β3 [2]", "value": "weak inhibitors"}]}
{"smiles": "CC(C)(C)NC[C@H](O)COc1cccc2[nH]c(C#N)c([125I])c12", "note": "[ICYP, [^125 I]iodocyanopindolol]", "values": [{"measurement": "Kd", "setting": "murine RA-β3 [5]", "value": "0.00088 ± 8.8e-05", "unit": "µM"}]}
{"smiles": "CNCC(O)c1ccc(O)c(O)c1", "note": "(single isomer, unassigned; (-)) [(-)-adrenalin]", "values": [{"measurement": "stimulation of cAMP accumulation (in words)", "setting": "murine RA-β3 [1]; CHO-Muβ3", "value": "accumulation of cAMP is stimulated"}, {"measurement": "A.I. (% IPR), intrinsic activity", "setting": "murine RA-β3 [1]; CHO-Muβ3", "value": "90.6 ± 2.9", "unit": "%"}, {"measurement": "EC50", "setting": "murine RA-β3 [1]; [6]", "value": "0.023 ± 0.0003", "unit": "µM"}, {"measurement": "EC50", "setting": "human RA-β3 [4]", "value": "0.0492 ± 0.0053", "unit": "µM"}]}
{"smiles": "CC(C)NCC(O)c1ccc(O)c(O)c1", "note": "(single isomer, unassigned; (-)) [(-)-isoproterenol]", "values": [{"measurement": "maximum concentration of cAMP induced by isoproterenol", "setting": "murine RA-β3 [1]", "value": 500, "unit": "pmol per million cells"}]}
{"smiles": "C=CCOc1ccccc1OCC(O)CNC(C)C", "note": "(stereo not shown) [oxprenolol]", "values": [{"measurement": "maximum stimulation of cAMP accumulation", "setting": "murine RA-β3 [1]; CHO-Muβ3", "value": 45, "unit": "%"}, {"measurement": "A.I. (% IPR), intrinsic activity", "setting": "murine RA-β3 [1]; CHO-Muβ3", "value": "43.8 ± 6.1", "unit": "%"}, {"measurement": "EC50", "setting": "murine RA-β3 [1]; [6]", "value": "0.535 ± 0.0793", "unit": "µM"}, {"measurement": "activation of receptor by β1 and β2 antagonists (in words)", "setting": "murine RA-β3 [1]", "value": "can be activated"}, {"measurement": "agonist type (in words)", "setting": "murine RA-β3 [1]", "value": "behave like partial agonists"}, {"measurement": "EC50", "setting": "human RA-β3 [4]", "value": "0.0766 ± 0.0126", "unit": "µM"}, {"measurement": "activation of receptor by β1 and β2 antagonists (in words)", "setting": "human RA-β3 [4]", "value": "can be activated"}]}
{"smiles": "C[C@H](Cc1ccc(OCC(=O)O)cc1)NC[C@H](O)c1cccc(Cl)c1", "note": "(relative stereo) [BRL 37344]", "values": [{"measurement": "EC50", "setting": "murine RA-β3 [1]", "value": "0.0004 ± 0.0001", "unit": "µM"}, {"measurement": "stimulation of cAMP accumulation (in words)", "setting": "murine RA-β3 [1]; CHO-Muβ3", "value": "potent agonist effect"}, {"measurement": "A.I. (% IPR), intrinsic activity", "setting": "murine RA-β3 [1]; CHO-Muβ3", "value": "107.4 ± 8.1", "unit": "%"}, {"measurement": "agonist potency in mice compared with human (in words)", "setting": "murine RA-β3 [1]; murine vs human RA-β3", "value": "increased potency"}, {"measurement": "stimulation of cAMP accumulation, of lipolysis and of thermogenesis (in words)", "setting": "obese rat cells", "value": "effectiveness in the stimulation of cAMP accumulation, of lipolysis and of thermogenesis"}]}
{"smiles": "CC(C)(C)NCC(O)COc1cccc2[nH]c(=O)[nH]c12", "note": "(stereo not shown) [CGP 12177A]", "values": [{"measurement": "lipolysis and adenylate cyclase activity (in words)", "setting": "RA-β3", "value": "stimulates lipolysis and adenylate cyclase activity"}, {"measurement": "maximum stimulation of cAMP accumulation", "setting": "murine RA-β3 [1]; CHO-Muβ3", "value": 77, "unit": "%"}, {"measurement": "A.I. (% IPR), intrinsic activity", "setting": "murine RA-β3 [1]; CHO-Muβ3", "value": "74.9 ± 7.9", "unit": "%"}, {"measurement": "activation of receptor by β1 and β2 antagonists (in words)", "setting": "murine RA-β3 [1]", "value": "can be activated"}, {"measurement": "agonist type (in words)", "setting": "murine RA-β3 [1]", "value": "behave like partial agonists"}, {"measurement": "EC50", "setting": "human RA-β3 [4]", "value": "0.139 ± 0.0443", "unit": "µM"}, {"measurement": "activation of receptor by β1 and β2 antagonists (in words)", "setting": "human RA-β3 [4]", "value": "can be activated"}]}
